Results reported in patent publication US6060604A, “Pharmaceutical compounds comprising polyamines substituted with electron-affinic groups” (priority 1996, dated 2000).
Where a name gives a salt, the structure may show the parent alone.

Columns and labels:
hypoxic CHO cells = experiment: radiosensitizing potency on hypoxic CHO cells as a function of linker length (Table 3); assay type: cell-based, Chinese hamster; details: 8 Gy; for Sensitization Ratio at 20% Cell Survival Level: vs metronidazole, by linker (spacer chain) length
Experimental: The experiment shown in Table 3 is a later experiment which was conducted to determine the effect of the spacer chain (i.e., A) length. CHO cells were plated and allowed to attach to petri dishes for 3 h, then the media was replaced with 5 ml of Hank's Balanced Salt Solution with or without drugs. To induce cell hypoxia, the dishes were placed in sealed aluminum chambers which were degassed by pumping, and then back filled with 95% N2 /5% CO2. After 4 cycles, when the cells were severely hypoxic, the chambers were exposed to an X-ray beam generated by a General Electric Maxitron 300 therapy machine operated at 250 kVp and 20 mA (HVL 20 mm Al filter; dose rate at 2 Gy/min). The cells were cultured for 7 days in a 37° C. incubator and the resulting cell colonies were stained and counted.

[1] = tested on: Chinese hamster ovary (CHO) cells; experiment: in vitro radiosensitization of hypoxic CHO cells, colony formation (Table 1); assay type: cell-based; details: drug dose 0.1 mM
Experimental: Cells were plated and allowed to attach on glass petri dishes for 3 h, then the media was replaced with 5 ml of Hank's balanced salt solution (HBSS) with or without drugs. To induce cell hypoxia, the dishes were placed at room temperature into sealed aluminum chambers (8 dishes/chamber). […] This procedure was repeated 4 times with 5 min holding periods under positive gas pressure between evacuations. After 1 h, when the cells were severely hypoxic, the chambers were placed in 37° C. water bath for 1 hr. For oxic treatment groups, cells were placed in 37° C. incubators for 2 h with 5 ml of HBSS (±drugs). The chambers were placed on a rotating table and exposed to an X-ray beam generated by a General Electric Maxitron 300 therapy machine operated at 250 kVp and 20 mA (HVL 20 mm Al filter; dose rate at 2 Gy/min). After irradiation, cells were rinsed with HBSS, and covered with fresh media. Cells were cultured for 7 days in a 37° C. incubator. The resulting cell colonies were stained and counted.

CHO cells [2] = experiment: thermo-radiosensitization of hypoxic CHO cells, colony forming assay (Table 4); assay type: cell-based, Chinese hamster; details: 41° C.
Experimental: To examine the thermo-radiosensitizing effects of compounds (8) and (10), hypoxic CHO cells were irradiated (with or without drugs) with radiation doses ranging from 0-30 Gy. After irradiation, the chambers were placed either in a 37° C. or in a 41° C. water bath for 30 min. Then cell survival was evaluated by the colony forming assay.

CHO cells [3] = experiment: radiosensitization potency on hypoxic CHO cells at 20% survival, single X ray dose 8 Gy (Table 2); assay type: cell-based, Chinese hamster
Experimental: Cells were plated and allowed to attach on glass petri dishes for 3 h, then the media was replaced with 5 ml of Hank's balanced salt solution (HBSS) with or without drugs. To induce cell hypoxia, the dishes were placed at room temperature into sealed aluminum chambers (8 dishes/chamber). The chambers were degassed by pumping, and then back-filled with 95% N2 and 5% CO2. This procedure was repeated 4 times with 5 min holding periods under positive gas pressure between evacuations. After 1 h, when the cells were severely hypoxic, the chambers were placed in 37° C. water bath for 1 hr. For oxic treatment groups, cells were placed in 37° C. incubators for 2 h with 5 ml of HBSS (±drugs). The chambers were placed on a rotating table and exposed to an X-ray beam generated by a General Electric Maxitron 300 therapy machine operated at 250 kVp and 20 mA (HVL 20 mm Al filter; dose rate at 2 Gy/min). After irradiation, cells were rinsed with HBSS, and covered with fresh media. Cells were cultured for 7 days in a 37° C. incubator. The resulting cell colonies were stained and counted.
In the experiment shown in Table 2 hypoxic CHO cells were irradiated with a single X ray dose of 8 Gy, with or without drugs.

solubility in water = assay type: physicochemical; details: d-gluconic acid salt
Experimental: A solution of N, N, N', N'-tetra[2'-(2-methyl-5-nitro-1-imidazolyl)ethyl]-1,8-octanediamine free base was prepared by dissolving 0.5 g of N, N, N', N'-tetra[2'-(2-methyl-5-nitro-1-imidazolyl)ethyl]-1,8-octanediamine in 20 ml of CH2 Cl2. To this solution, 2 g of gluconic acid in 5 ml of water was added. To the resultant mixture, pure MeOH was added dropwise until the mixture became a homogeneous solution. To this, 50 ml of ether, followed by 200 ml of hexane were added to precipitate the solid. The reaction mixture was cooled to 4° C., and the precipitated salt was removed by filtration through a sintered glass funnel, washed with anhydrous ether and dried under vacuum.

[4] = as radiosensitizers; cited from earlier work

Cc1ncc([N+](=O)[O-])n1CCN(CCCCCN(CCn1c([N+](=O)[O-])cnc1C)CCn1c([N+](=O)[O-])cnc1C)CCn1c([N+](=O)[O-])cnc1C [5-carbon DATM, N, N, N', N'-tetra[2'-(2-methyl-5-nitro-1-imidazolyl)ethyl]-1,5-pentanediamine]
Sensitization Ratio at 20% Cell Survival Level (hypoxic CHO cells): 80

Cc1ncc([N+](=O)[O-])n1CCN(CCCCCN(CCn1c([N+](=O)[O-])cnc1C)CCn1c([N+](=O)[O-])cnc1C)CCn1c([N+](=O)[O-])cnc1C [Compound 10, N, N, N', N'-tetra[2'-(2-methyl-5-nitro-1-imidazolyl)ethyl]-1,5-pentanediamine]
Do [1]: 1.9 Gy
Ratio of RT Dose For 0.04 SF [1]: 1.5
SFR (N2)(18 Gy), surviving fraction ratio ([1]; hypoxic, 18 Gy): 21.4
combined drug/mild hyperthermia effect on radiosensitivity (CHO cells [2]; hypoxic CHO cells): hypoxic cells become even more radiosensitive (smaller D0) than fully oxic cells
Do (CHO cells [2]; drug dose 10 μM, 30 min): 0.6 Gy
IC80 (CHO cells [3]; Cricetulus griseus, CHO, read-out: drug molarity required to reduce cell survival to 20% of the untreated control value): 25 µM
times more potent than metronidazole (CHO cells [3]; hypoxic, 8 Gy, 20% survival): 400 times
Sensitization Ratio at 20% Survival Level (CHO cells [3]; vs metronidazole, 8 Gy): 400

Cc1ncc([N+](=O)[O-])n1CCN(CCCCCCCCN(CCn1c([N+](=O)[O-])cnc1C)CCn1c([N+](=O)[O-])cnc1C)CCn1c([N+](=O)[O-])cnc1C [Example 5, N, N, N', N'-tetra[2'-(2-methyl-5-nitro-1-imidazolyl)ethyl]-1,8-octanediamine gluconic acid salt]
solubility in water (solubility in water): highly soluble in water

Cc1ncc([N+](=O)[O-])n1CCN(CCCCN(CCn1c([N+](=O)[O-])cnc1C)CCn1c([N+](=O)[O-])cnc1C)CCn1c([N+](=O)[O-])cnc1C [Linker Length 4, N, N, N', N'-tetra [2'-(2-methyl-5-nitro-1-imidazolyl)ethyl]-1,4-butanediamine]
times more potent/effective than metronidazole (hypoxic CHO cells): 50 times
Sensitization Ratio at 20% Cell Survival Level (hypoxic CHO cells): 50

Cc1ncc([N+](=O)[O-])n1CCN(CCCCCCN(CCn1c([N+](=O)[O-])cnc1C)CCn1c([N+](=O)[O-])cnc1C)CCn1c([N+](=O)[O-])cnc1C [Linker Length 6]
Sensitization Ratio at 20% Cell Survival Level (hypoxic CHO cells): 120

Cc1ncc([N+](=O)[O-])n1CCN(CCCCCCCN(CCn1c([N+](=O)[O-])cnc1C)CCn1c([N+](=O)[O-])cnc1C)CCn1c([N+](=O)[O-])cnc1C [Linker Length 7]
Sensitization Ratio at 20% Cell Survival Level (hypoxic CHO cells): 220

COCC(O)Cn1ccnc1[N+](=O)[O-] (stereo not drawn) [misonidazole]
toxicity at therapeutic levels [4]: highly toxic at therapeutic levels
